In patent US10611740B2, “Aryl dihydro-2H-benzo[b][1,4]oxazine sulfonamide and related compounds for use as agonists of RORγ and the treatment of disease” (Lycera Corporation, priority 2015, dated 2020):

Legend:
RORγ-LBD = target: T1, RORγ-LBD (Homo sapiens, UniProt P51449); experiment: RORγ-Ligand Binding Domain (LBD) TR-FRET Assay; format: biochemical;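 on TR-FRET Assay Max Response: 665/615 nm ratio relative to signal without ursolic acid or compound set at 100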
T1 construct: made in house; host or cells: SF9 cells (baculovirus)
T1 sequence (P51449 269-508 limits assumed): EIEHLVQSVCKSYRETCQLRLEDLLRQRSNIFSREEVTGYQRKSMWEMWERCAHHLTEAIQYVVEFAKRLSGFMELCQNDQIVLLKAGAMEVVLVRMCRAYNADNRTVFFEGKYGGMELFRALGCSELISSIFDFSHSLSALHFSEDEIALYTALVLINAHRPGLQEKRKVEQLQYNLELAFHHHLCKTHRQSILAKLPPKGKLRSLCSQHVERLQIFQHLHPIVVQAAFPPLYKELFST
In short: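 Lysate from SF9 cells expressing His-RORγ-LBD is diluted to about 3 nM final in 50 mM Tris pH 7.0 assay buffer. A biotin-tagged SRC1 LXXLL peptide goes in at 200 nM final, plus ursolic acid at 2 μM final. Test compounds carry 1% DMSO final; signal read by TR-FRET.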

Gal4-RORγ-LBD = target: T2, Gal4-RORγ-LBD (Homo sapiens, UniProt P51449); experiment: Gal4-RORγ Luciferase Reporter Assay in HEK-293T Cells; format: cell-based; conditions: HEK-293 cells, 2 μM ursolic acid
T2 construct: expressed in transfected cells; host or cells: HEK-293 cells (pcDNA3.1neo plasmid)
T2 sequence (P51449 269-508 limits assumed): T1 sequence (P51449 269-508 limits assumed)
In short: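 In transfected HEK-293 cells (Gal4-RORγ-LBD, Gal4-luciferase), test agents with 2 μM ursolic acid were incubated overnight at 37 °C before luminescent detection. Values are relative to the ursolic-acid-free, compound-free signal (100).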

SMILES	EC50 (RORγ-LBD) [nM]	EC50 (Gal4-RORγ-LBD) [nM]	TR-FRET Assay Max Response (RORγ-LBD)	Gal4-RORγ Assay Max Response (Gal4-RORγ-LBD)
O=C(O)[C@@]1(C[C@H]2CN(S(=O)(=O)c3cccc(C(F)(F)F)c3)c3cc(-c4cc(F)ccc4F)ccc3O2)CCNC1=O [Compound 77B, (R)-3-(((S)-6-(2,5-difluorophenyl)-4-((3-(trifluoromethyl)phenyl)-sulfonyl)-3,4-dihydro-2H-benzo[b][1,4]oxazin-2-yl)methyl)-2-oxopyrrolidine-3-carboxylic acid]	< 500	< 500	*** (The symbol “***” indicates a value in the range of greater than 150 to 200)	** (The symbol “**” indicates a value in the range of greater than 90 to 150)
O=C(O)C1(C[C@H]2CN(S(=O)(=O)c3cccc(C(F)(F)F)c3)c3cc(-c4cccc(Cl)c4)ccc3O2)CCOCC1 [Compound 78A, (S)-4-((6-(3-chlorophenyl)-4-((3-(trifluoromethyl)phenyl)sulfonyl)-3,4-dihydro-2H-benzo[b][1,4]-oxazin-2-yl)methyl)tetrahydro-2H-pyran-4-carboxylic acid]	< 500	< 500	** (The symbol “**” indicates a value in the range of greater than 90 to 150)	** (The symbol “**” indicates a value in the range of greater than 90 to 150)
Cc1cc(Cl)cc(-c2ccc3c(c2)N(S(=O)(=O)c2cccc(C(F)(F)F)c2)C[C@H](CC2(C(=O)O)CCOCC2)O3)c1 [Compound 78B, (S)-4-((6-(3-chloro-5-methyl-phenyl)-4-((3-(trifluoromethyl)-phenyl)sulfonyl)-3,4-dihydro-2H-benzo[b][1,4]oxazin-2-yl)methyl)tetrahydro-2H-pyran-4-carboxylic acid]	< 500	< 500	** (The symbol “**” indicates a value in the range of greater than 90 to 150)	** (The symbol “**” indicates a value in the range of greater than 90 to 150)
O=C(O)C1(C[C@H]2CN(S(=O)(=O)c3cccc(C(F)(F)F)c3)c3cc(-c4cc(F)cc(F)c4Cl)ccc3O2)CCOCC1 [Compound 78C, (S)-4-((6-(2-chloro-3,5-difluoro-phenyl)-4-((3-(trifluoromethyl)-phenyl)sulfonyl)-3,4-dihydro-2H-benzo[b][1,4]oxazin-2-yl)methyl)tetrahydro-2H-pyran-4-carboxylic acid]	< 500	< 500	** (The symbol “**” indicates a value in the range of greater than 90 to 150)	*** (The symbol “***” indicates a value in the range of greater than 150 to 200)
O=C(O)C1(C[C@H]2CN(S(=O)(=O)c3cccc(C(F)(F)F)c3)c3cc(-c4cc(F)ccc4Cl)ccc3O2)CCOCC1 [Compound 78D, (S)-4-((6-(2-chloro-5-fluoro-phenyl)-4-((3-(trifluoromethyl)-phenyl)sulfonyl)-3,4-dihydro-2H-benzo[b][1,4]oxazin-2-yl)methyl)tetrahydro-2H-pyran-4-carboxylic acid]	< 500	< 500	** (The symbol “**” indicates a value in the range of greater than 90 to 150)	*** (The symbol “***” indicates a value in the range of greater than 150 to 200)
O=C(O)C1(C[C@H]2CN(S(=O)(=O)c3cccc(C(F)(F)F)c3)c3cc(-c4cc(F)cc(Cl)c4)ccc3O2)CCOCC1 [Compound 78E, (S)-4-((6-(3-chloro-5-fluoro-phenyl)-4-((3-(trifluoromethyl)-phenyl)sulfonyl)-3,4-dihydro-2H-benzo[b][1,4]oxazin-2-yl)methyl)tetrahydro-2H-pyran-4-carboxylic acid]	< 500	< 500	** (The symbol “**” indicates a value in the range of greater than 90 to 150)	** (The symbol “**” indicates a value in the range of greater than 90 to 150)
O=C(O)C1(C[C@H]2CN(S(=O)(=O)c3cccc(C(F)(F)F)c3)c3cc(-c4cccc(Cl)c4F)ccc3O2)CCOCC1 [Compound 78F, (S)-4-((6-(3-chloro-2-fluoro-phenyl)-4-((3-(trifluoromethyl)-phenyl)sulfonyl)-3,4-dihydro-2H-benzo[b][1,4]oxazin-2-yl)methyl)tetrahydro-2H-pyran-4-carboxylic acid]	< 500	< 500	** (The symbol “**” indicates a value in the range of greater than 90 to 150)	** (The symbol “**” indicates a value in the range of greater than 90 to 150)

Continued, in another order:

EC50 (RORγ-LBD) [nM]	EC50 (Gal4-RORγ-LBD) [nM]	SMILES	TR-FRET Assay Max Response (RORγ-LBD)	Gal4-RORγ Assay Max Response (Gal4-RORγ-LBD)
< 500	< 500	Cc1cc(C)cc(-c2ccc3c(c2)N(S(=O)(=O)c2cccc(C(F)(F)F)c2)C[C@H](CC2(C(=O)O)CCOCC2)O3)c1 [Compound 78G, (S)-4-((6-(3,5-dimethylphenyl)-4-((3-(trifluoromethyl)phenyl)-sulfonyl)-3,4-dihydro-2H-benzo[b][1,4]oxazin-2-yl)methyl)tetrahydro-2H-pyran-4-carboxylic acid]	** (The symbol “**” indicates a value in the range of greater than 90 to 150)	** (The symbol “**” indicates a value in the range of greater than 90 to 150)
< 500	< 500	O=C(O)C1(C[C@H]2CN(S(=O)(=O)c3cccc(C(F)(F)F)c3)c3cc(-c4cccc(C(F)(F)F)c4)ccc3O2)CCOCC1 [Compound 78H, (S)-4-((6-(3-(trifluoromethyl)-phenyl)-4-((3-(trifluoromethyl)-phenyl)sulfonyl)-3,4-dihydro-2H-benzo[b][1,4]oxazin-2-yl)methyl)tetrahydro-2H-pyran-4-carboxylic acid]	** (The symbol “**” indicates a value in the range of greater than 90 to 150)	* (The symbol “*” indicates a value in the range of 25 to 90)
< 500	500 to 5000	C[C@H](CC(=O)O)[C@H]1CN(S(=O)(=O)c2cccc(C(F)(F)F)c2)c2cc(-c3cc(F)cc(F)c3Cl)ccc2O1 [Compound 80B, (R)-3-((S)-6-(2-chloro-3,5-difluorophenyl)-4-((3-(trifluoromethyl)phenyl)sulfonyl)-3,4-dihydro-2H-benzo[b][1,4]-oxazin-2-yl)butanoic acid]	** (The symbol “**” indicates a value in the range of greater than 90 to 150)	** (The symbol “**” indicates a value in the range of greater than 90 to 150)
< 500	< 500	C[C@@H](CC(=O)O)[C@H]1CN(S(=O)(=O)c2cccc(C(F)(F)F)c2)c2cc(-c3cc(F)cc(F)c3Cl)ccc2O1 [Compound 80C, (S)-3-((S)-6-(2-chloro-3,5-difluorophenyl)-4-((3-(trifluoromethyl)phenyl)sulfonyl)-3,4-dihydro-2H-benzo[b][1,4]-oxazin-2-yl)butanoic acid]	*** (The symbol “***” indicates a value in the range of greater than 150 to 200)	** (The symbol “**” indicates a value in the range of greater than 90 to 150)
< 500	500 to 5000	CC(=O)N[C@H]1C[C@@](C[C@H]2CN(S(=O)(=O)c3cccc(C(F)(F)F)c3)c3cc(-c4cc(F)cc(OC(F)F)c4)ccc3O2)(C(=O)O)C1 [Compound 84, (1s,3R)-3-acetamido-1-(((S)-6-(3-(difluoromethoxy)-5-fluorophenyl)-4-((3-(trifluoromethyl)phenyl)sulfonyl)-3,4-dihydro-2H-benzo[b][1,4]oxazin-2-yl)methyl)cyclobutane-1-carboxylic acid]	** (The symbol “**” indicates a value in the range of greater than 90 to 150)	* (The symbol “*” indicates a value in the range of 25 to 90)
< 500	< 500	CC(=O)N[C@H]1C[C@](C[C@H]2CN(S(=O)(=O)c3cccc(C(F)(F)F)c3)c3cc(-c4cc(F)cc(OC(F)F)c4)ccc3O2)(C(=O)O)C1 [Compound 85, (1r,3S)-3-acetamido-1-(((S)-6-(3-(difluoromethoxy)-5-fluorophenyl)-4-((3-(trifluoromethyl)phenyl)sulfonyl)-3,4-dihydro-2H-benzo[b][1,4]oxazin-2-yl)methyl)cyclobutane-1-carboxylic Acid]	** (The symbol “**” indicates a value in the range of greater than 90 to 150)	** (The symbol “**” indicates a value in the range of greater than 90 to 150)
500 to 5000	500 to 5000	CC(=O)N[C@H]1C[C@@](C[C@H]2CN(S(=O)(=O)c3cccc(C(F)(F)F)c3)c3cc(-c4cc(F)ccc4F)ccc3O2)(C(=O)O)C1 [Compound 89A, (1s,3R)-3-acetamido-1-(((S)-6-(2,5-difluorophenyl)-4-((3-(trifluoro-methyl)phenyl)sulfonyl)-3,4-dihydro-2H-benzo[b][1,4]oxazin-2-yl)methyl)cyclobutane-1-carboxylic acid]	*** (The symbol “***” indicates a value in the range of greater than 150 to 200)	** (The symbol “**” indicates a value in the range of greater than 90 to 150)
